# ChEMBL document CHEMBL6127158, “Novel Aminopyrazole Inhibitors of PDE11A for the Treatment of Alzheimer's Disease and Other Types of Dementia” (ACS Med Chem Lett, 2024)
# Activity calls are given as the source filed them. No cut-off for these calls is given here.
# Target: Dual 3',5'-cyclic-AMP and -GMP phosphodiesterase 11A (Homo sapiens) (UniProt Q9HCR9)
# Assay: Inhibition of recombinant N-terminal GST-tagged human PDE11A4 (1 to 943 residues) expressed in Sf9 cells at 500 nM using cGMP and cAMP as substrates by Ba(OH)2 precipitation method relative to control
# Chain of Dual 3',5'-cyclic-AMP and -GMP phosphodiesterase 11A (Homo sapiens) (Q9HCR9 whole entry, looked up, the tested form may be a part): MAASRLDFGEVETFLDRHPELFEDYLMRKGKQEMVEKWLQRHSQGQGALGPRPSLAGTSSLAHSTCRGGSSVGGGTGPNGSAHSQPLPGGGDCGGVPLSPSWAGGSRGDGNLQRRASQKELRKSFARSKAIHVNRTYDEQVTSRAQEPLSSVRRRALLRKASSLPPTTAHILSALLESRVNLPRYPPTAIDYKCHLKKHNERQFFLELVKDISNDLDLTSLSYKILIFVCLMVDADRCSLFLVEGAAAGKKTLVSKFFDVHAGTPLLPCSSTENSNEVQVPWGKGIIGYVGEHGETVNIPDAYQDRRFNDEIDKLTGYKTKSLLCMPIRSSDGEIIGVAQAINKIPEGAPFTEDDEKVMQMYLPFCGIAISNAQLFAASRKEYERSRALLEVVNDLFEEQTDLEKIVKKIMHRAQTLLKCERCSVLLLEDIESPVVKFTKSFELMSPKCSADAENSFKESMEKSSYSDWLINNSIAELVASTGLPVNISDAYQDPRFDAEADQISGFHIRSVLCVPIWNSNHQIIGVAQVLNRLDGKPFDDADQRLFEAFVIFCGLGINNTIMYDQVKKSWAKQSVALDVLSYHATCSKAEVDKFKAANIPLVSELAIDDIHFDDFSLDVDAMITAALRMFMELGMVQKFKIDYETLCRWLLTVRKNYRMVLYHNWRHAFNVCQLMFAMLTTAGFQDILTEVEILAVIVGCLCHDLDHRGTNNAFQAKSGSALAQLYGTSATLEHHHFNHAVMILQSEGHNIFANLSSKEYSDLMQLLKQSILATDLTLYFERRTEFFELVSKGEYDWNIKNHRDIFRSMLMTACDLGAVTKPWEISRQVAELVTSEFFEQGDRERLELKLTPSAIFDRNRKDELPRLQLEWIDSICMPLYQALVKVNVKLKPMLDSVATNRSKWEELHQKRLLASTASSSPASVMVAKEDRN
row,inhibition,Structure (SMILES)
1,inactive,CCN(CC)C(=O)c1ccnc2c1c(C)nn2-c1ccccc1
2,1%,Cc1nn(-c2ccccc2)c2nc(-c3cccs3)cc(C(=O)N3CCCC3)c12
3,51%,CCN(CC)C(=O)c1cc(-c2ccnn2C)nc2c1c(C)nn2-c1ccc(Cl)c(F)c1
